According to ChEMBL document CHEMBL5506059, “Cyanomethylquinolones as a New Class of Potential Multitargeting Broad-Spectrum Antibacterial Agents” (J Med Chem, 2024):
≈ marks a conversion by molar mass, not a printed value.

Key:
Assay type in all cases: functional
[1] = test system: Acinetobacter baumannii; experiment: Antibacterial activity against Acinetobacter baumannii clinical isolate assessed as inhibition of bacterial growth incubated for 24 hrs
[2] = test system: Staphylococcus aureus; experiment: Antibacterial activity against methicillin resistant Staphylococcus aureus clinical isolate assessed as inhibition of bacterial growth incubated for 24 hrs
[3] = test system: Enterococcus faecalis; experiment: Antibacterial activity against Enterococcus faecalis clinical isolate assessed as inhibition of bacterial growth incubated for 24 hrs
[4] = test system: Pseudomonas aeruginosa; experiment: Antibacterial activity against Pseudomonas aeruginosa clinical isolate assessed as inhibition of bacterial growth incubated for 24 hrs
[5] = test system: Pseudomonas aeruginosa; experiment: Antibacterial activity against Pseudomonas aeruginosa ATCC 27853 assessed as inhibition of bacterial growth incubated for 24 hrs
[6] = test system: Staphylococcus aureus; experiment: Antibacterial activity against Staphylococcus aureus clinical isolate assessed as inhibition of bacterial growth incubated for 24 hrs
[7] = test system: Escherichia coli; experiment: Antibacterial activity against Escherichia coli ATCC 25922 assessed as inhibition of bacterial growth incubated for 24 hrs
[8] = test system: Klebsiella pneumoniae; experiment: Antibacterial activity against Klebsiella pneumoniae clinical isolate assessed as inhibition of bacterial growth incubated for 24 hrs
[9] = test system: Staphylococcus aureus; experiment: Antibacterial activity against Staphylococcus aureus ATCC 25923 assessed as inhibition of bacterial growth incubated for 24 hrs
[10] = test system: Escherichia coli; experiment: Antibacterial activity against Escherichia coli clinical isolate assessed as inhibition of bacterial growth incubated for 24 hrs
[11] = test system: Staphylococcus aureus; experiment: Antibacterial activity against Staphylococcus aureus ATCC 29213 assessed as inhibition of bacterial growth incubated for 24 hrs

Structure (SMILES)	MIC [1] [µg/mL]	MIC [2] [µg/mL]	MIC [3] [µg/mL]	MIC [4] [µg/mL]	MIC [5] [µg/mL]	MIC [6] [µg/mL]	MIC [7] [µg/mL]	MIC [8] [µg/mL]	MIC [9] [µg/mL]	MIC [10] [µg/mL]	MIC [11] [µg/mL]
N#CCc1cc2c(cc1F)c(=O)c(C(=O)O)cn2Cc1ccc(Cl)c(Cl)c1	0.5 (≈ 1.23 µM)	256 (≈ 632 µM)	256 (≈ 632 µM)	0.5 (≈ 1.23 µM)	2 (≈ 4.94 µM)	256 (≈ 632 µM)	2 (≈ 4.94 µM)	16 (≈ 39.5 µM)	0.25 (≈ 0.617 µM)	8 (≈ 19.7 µM)	2 (≈ 4.94 µM)
N#CCc1cc2c(cc1F)c(=O)c(C(=O)O)cn2Cc1ccc([N+](=O)[O-])cc1	256 (≈ 671 µM)	128 (≈ 336 µM)	8 (≈ 21 µM)	4 (≈ 10.5 µM)	32 (≈ 83.9 µM)	256 (≈ 671 µM)	128 (≈ 336 µM)	8 (≈ 21 µM)	32 (≈ 83.9 µM)	256 (≈ 671 µM)	256 (≈ 671 µM)
N#CCc1cc2c(cc1F)c(=O)c(C(=O)O)cn2CC(=O)N1CCCCC1	64 (≈ 172 µM)	4 (≈ 10.8 µM)	64 (≈ 172 µM)	1 (≈ 2.69 µM)	4 (≈ 10.8 µM)	128 (≈ 345 µM)	4 (≈ 10.8 µM)	16 (≈ 43.1 µM)	16 (≈ 43.1 µM)	16 (≈ 43.1 µM)	4 (≈ 10.8 µM)
C=CCn1cc(C(=O)O)c(=O)c2cc(F)c(CC#N)cc21	8 (≈ 27.9 µM)	0.5 (≈ 1.75 µM)	16 (≈ 55.9 µM)	0.5 (≈ 1.75 µM)	4 (≈ 14 µM)	2 (≈ 6.99 µM)	0.5 (≈ 1.75 µM)	1 (≈ 3.49 µM)	0.5 (≈ 1.75 µM)	256 (≈ 894 µM)	4 (≈ 14 µM)
N#CCc1cc2c(cc1F)c(=O)c(C(=O)O)cn2Cc1cnc(Cl)s1	16 (≈ 42.4 µM)	1 (≈ 2.65 µM)	16 (≈ 42.4 µM)	0.5 (≈ 1.32 µM)	2 (≈ 5.29 µM)	8 (≈ 21.2 µM)	1 (≈ 2.65 µM)	8 (≈ 21.2 µM)	8 (≈ 21.2 µM)	8 (≈ 21.2 µM)	4 (≈ 10.6 µM)
CCCCn1cc(C(=O)O)c(=O)c2cc(F)c(CC#N)cc21	256 (≈ 847 µM)	0.5 (≈ 1.65 µM)	64 (≈ 212 µM)	0.5 (≈ 1.65 µM)	4 (≈ 13.2 µM)	8 (≈ 26.5 µM)	0.5 (≈ 1.65 µM)	1 (≈ 3.31 µM)	0.25 (≈ 0.827 µM)	4 (≈ 13.2 µM)	8 (≈ 26.5 µM)
CCCn1cc(C(=O)O)c(=O)c2cc(F)c(CC#N)cc21	32 (≈ 111 µM)	1 (≈ 3.47 µM)	32 (≈ 111 µM)	0.5 (≈ 1.73 µM)	2 (≈ 6.94 µM)	4 (≈ 13.9 µM)	2 (≈ 6.94 µM)	1 (≈ 3.47 µM)	0.25 (≈ 0.867 µM)	8 (≈ 27.8 µM)	4 (≈ 13.9 µM)
N#CCc1cc2c(cc1F)c(=O)c(C(=O)O)cn2Cc1ccccn1	2 (≈ 5.93 µM)	32 (≈ 94.9 µM)	8 (≈ 23.7 µM)	0.5 (≈ 1.48 µM)	16 (≈ 47.4 µM)	256 (≈ 759 µM)	0.25 (≈ 0.741 µM)	4 (≈ 11.9 µM)	1 (≈ 2.96 µM)	8 (≈ 23.7 µM)	8 (≈ 23.7 µM)
Cc1ccc(Cn2cc(C(=O)O)c(=O)c3cc(F)c(CC#N)cc32)cc1	256 (≈ 731 µM)	8 (≈ 22.8 µM)	4 (≈ 11.4 µM)	0.5 (≈ 1.43 µM)	4 (≈ 11.4 µM)	256 (≈ 731 µM)	0.25 (≈ 0.714 µM)	256 (≈ 731 µM)	0.25 (≈ 0.714 µM)	256 (≈ 731 µM)	256 (≈ 731 µM)
N#CCc1cc2c(cc1F)c(=O)c(C(=O)O)cn2CC1CCCC1	128 (≈ 390 µM)	256 (≈ 780 µM)	256 (≈ 780 µM)	256 (≈ 780 µM)	128 (≈ 390 µM)	128 (≈ 390 µM)	256 (≈ 780 µM)	256 (≈ 780 µM)	64 (≈ 195 µM)	32 (≈ 97.5 µM)	256 (≈ 780 µM)
CCn1cc(C(=O)O)c(=O)c2cc(F)c(CC#N)c(F)c21	0.5 (≈ 1.71 µM)	1 (≈ 3.42 µM)	8 (≈ 27.4 µM)	1 (≈ 3.42 µM)	4 (≈ 13.7 µM)	0.25 (≈ 0.855 µM)	0.5 (≈ 1.71 µM)	16 (≈ 54.7 µM)	16 (≈ 54.7 µM)	4 (≈ 13.7 µM)	1 (≈ 3.42 µM)
CCCCCCCCn1cc(C(=O)O)c(=O)c2cc(F)c(CC(=O)O)cc21	4 (≈ 10.6 µM)	4 (≈ 10.6 µM)	2 (≈ 5.3 µM)	1 (≈ 2.65 µM)	2 (≈ 5.3 µM)	16 (≈ 42.4 µM)	2 (≈ 5.3 µM)	0.5 (≈ 1.32 µM)	4 (≈ 10.6 µM)	2 (≈ 5.3 µM)	4 (≈ 10.6 µM)
O=C(O)Cc1cc2c(cc1F)c(=O)c(C(=O)O)cn2Cc1ccccc1Cl	32 (≈ 82.1 µM)	32 (≈ 82.1 µM)	32 (≈ 82.1 µM)	64 (≈ 164 µM)	4 (≈ 10.3 µM)	32 (≈ 82.1 µM)	8 (≈ 20.5 µM)	0.5 (≈ 1.28 µM)	16 (≈ 41.1 µM)	32 (≈ 82.1 µM)	8 (≈ 20.5 µM)
N#CCc1cc2c(cc1F)c(=O)c(C(=O)O)cn2Cc1ccc(C(F)(F)F)cc1	64 (≈ 158 µM)	16 (≈ 39.6 µM)	0.5 (≈ 1.24 µM)	16 (≈ 39.6 µM)	8 (≈ 19.8 µM)	8 (≈ 19.8 µM)	8 (≈ 19.8 µM)	64 (≈ 158 µM)	2 (≈ 4.95 µM)	256 (≈ 633 µM)	4 (≈ 9.89 µM)
O=C(O)Cc1cc2c(cc1F)c(=O)c(C(=O)O)cn2Cc1ccccc1	64 (≈ 180 µM)	16 (≈ 45 µM)	32 (≈ 90.1 µM)	32 (≈ 90.1 µM)	8 (≈ 22.5 µM)	32 (≈ 90.1 µM)	8 (≈ 22.5 µM)	4 (≈ 11.3 µM)	16 (≈ 45 µM)	64 (≈ 180 µM)	64 (≈ 180 µM)
N#CCc1cc2c(cc1F)c(=O)c(C(=O)O)cn2Cc1ccccc1	256 (≈ 761 µM)	8 (≈ 23.8 µM)	4 (≈ 11.9 µM)	0.25 (≈ 0.743 µM)	1 (≈ 2.97 µM)	256 (≈ 761 µM)	0.25 (≈ 0.743 µM)	0.5 (≈ 1.49 µM)	0.25 (≈ 0.743 µM)	2 (≈ 5.95 µM)	0.5 (≈ 1.49 µM)
CCCCCCn1cc(C(=O)O)c(=O)c2cc(F)c(CC#N)cc21	256 (≈ 775 µM)	256 (≈ 775 µM)	256 (≈ 775 µM)	2 (≈ 6.05 µM)	256 (≈ 775 µM)	256 (≈ 775 µM)	0.5 (≈ 1.51 µM)	8 (≈ 24.2 µM)	0.25 (≈ 0.757 µM)	4 (≈ 12.1 µM)	256 (≈ 775 µM)
N#CCc1cc2c(cc1F)c(=O)c(C(=O)O)cn2Cc1ccc(Cl)cc1Cl	8 (≈ 19.7 µM)	256 (≈ 632 µM)	256 (≈ 632 µM)	0.5 (≈ 1.23 µM)	32 (≈ 79 µM)	256 (≈ 632 µM)	1 (≈ 2.47 µM)	16 (≈ 39.5 µM)	0.5 (≈ 1.23 µM)	1 (≈ 2.47 µM)	2 (≈ 4.94 µM)
N#CCc1cc2c(cc1F)c(=O)c(C(=O)O)cn2CC1CC1	0.25 (≈ 0.833 µM)	0.5 (≈ 1.67 µM)	64 (≈ 213 µM)	0.25 (≈ 0.833 µM)	1 (≈ 3.33 µM)	256 (≈ 853 µM)	0.25 (≈ 0.833 µM)	2 (≈ 6.66 µM)	0.25 (≈ 0.833 µM)	1 (≈ 3.33 µM)	1 (≈ 3.33 µM)
CC(C)=CCn1cc(C(=O)O)c(=O)c2cc(F)c(CC#N)cc21	256 (≈ 814 µM)	1 (≈ 3.18 µM)	128 (≈ 407 µM)	0.5 (≈ 1.59 µM)	2 (≈ 6.36 µM)	256 (≈ 814 µM)	0.5 (≈ 1.59 µM)	0.5 (≈ 1.59 µM)	0.25 (≈ 0.795 µM)	256 (≈ 814 µM)	16 (≈ 50.9 µM)
N#CCc1cc2c(cc1F)c(=O)c(C(=O)O)cn2Cc1c(F)cccc1F	8 (≈ 21.5 µM)	4 (≈ 10.7 µM)	2 (≈ 5.37 µM)	4 (≈ 10.7 µM)	4 (≈ 10.7 µM)	4 (≈ 10.7 µM)	2 (≈ 5.37 µM)	8 (≈ 21.5 µM)	4 (≈ 10.7 µM)	32 (≈ 86 µM)	4 (≈ 10.7 µM)
N#CCc1cc2c(cc1F)c(=O)c(C(=O)O)cn2Cc1ccc(Cl)cc1	16 (≈ 43.2 µM)	256 (≈ 690 µM)	256 (≈ 690 µM)	0.5 (≈ 1.35 µM)	256 (≈ 690 µM)	256 (≈ 690 µM)	256 (≈ 690 µM)	256 (≈ 690 µM)	0.5 (≈ 1.35 µM)	256 (≈ 690 µM)	4 (≈ 10.8 µM)
N#CCc1cc2c(cc1F)c(=O)c(C(=O)O)cn2CC1CCCCC1	256 (≈ 748 µM)	256 (≈ 748 µM)	256 (≈ 748 µM)	16 (≈ 46.7 µM)	256 (≈ 748 µM)	256 (≈ 748 µM)	256 (≈ 748 µM)	256 (≈ 748 µM)	256 (≈ 748 µM)	256 (≈ 748 µM)	256 (≈ 748 µM)
O=C(O)Cc1cc2c(cc1F)c(=O)c(C(=O)O)cn2Cc1ccccn1	64 (≈ 180 µM)	128 (≈ 359 µM)	16 (≈ 44.9 µM)	64 (≈ 180 µM)	8 (≈ 22.5 µM)	64 (≈ 180 µM)	32 (≈ 89.8 µM)	8 (≈ 22.5 µM)	16 (≈ 44.9 µM)	128 (≈ 359 µM)	64 (≈ 180 µM)
Cn1cc(C(=O)O)c(=O)c2cc(F)c(CC#N)cc21	4 (≈ 15.4 µM)	2 (≈ 7.69 µM)	4 (≈ 15.4 µM)	0.5 (≈ 1.92 µM)	2 (≈ 7.69 µM)	1 (≈ 3.84 µM)	1 (≈ 3.84 µM)	0.5 (≈ 1.92 µM)	1 (≈ 3.84 µM)	16 (≈ 61.5 µM)	8 (≈ 30.7 µM)
N#CCc1cc2c(cc1F)c(=O)c(C(=O)O)cn2Cc1cccc(Cl)c1	16 (≈ 43.2 µM)	256 (≈ 690 µM)	256 (≈ 690 µM)	0.25 (≈ 0.674 µM)	0.5 (≈ 1.35 µM)	256 (≈ 690 µM)	0.5 (≈ 1.35 µM)	1 (≈ 2.7 µM)	0.5 (≈ 1.35 µM)	2 (≈ 5.39 µM)	0.5 (≈ 1.35 µM)
N#CCc1cc2c(cc1F)c(=O)c(C(=O)O)cn2Cc1cc(F)ccc1F	64 (≈ 172 µM)	256 (≈ 688 µM)	256 (≈ 688 µM)	256 (≈ 688 µM)	256 (≈ 688 µM)	4 (≈ 10.7 µM)	256 (≈ 688 µM)	16 (≈ 43 µM)	256 (≈ 688 µM)	256 (≈ 688 µM)	256 (≈ 688 µM)
CCCCCn1cc(C(=O)O)c(=O)c2cc(F)c(CC#N)cc21	256 (≈ 809 µM)	0.5 (≈ 1.58 µM)	256 (≈ 809 µM)	1 (≈ 3.16 µM)	4 (≈ 12.6 µM)	256 (≈ 809 µM)	0.25 (≈ 0.79 µM)	1 (≈ 3.16 µM)	0.25 (≈ 0.79 µM)	16 (≈ 50.6 µM)	8 (≈ 25.3 µM)
